Where a name gives a salt, the structure may show the parent alone. Read-outs that look alike come from different tables or passages of the source.
Experiments:
[1] = molecular target: Notch signal transduction pathway; assay: In vitro Notch signal transduction pathway activity assay (DR215/F2 luciferase reporter); type: cell-based, human; conditions: for IC50 for blockade of the Notch pathway, range in words: DR215/F2 cell reporter assay; for IC50: Homo sapiens, 215/F2 reporter cell line, 19 h, mean of at least 3 experiments
Method: The compounds were dissolved in dimethyl sulfoxide (DMSO) at 10 mM stock solution, aliquoted and stored at −4° C. until use, then diluted in PBS or cell culture medium. In the experimental settings, controls containing increasing concentrations of DMSO, corresponding to the amount of DMSO of the diluted compounds were always included. For in vivo experiments, the compounds were dissolved in 0.9% NaCl, incubated 30 min at 40° C. and sonicated for 5 min.
The requirement of proteolytic activation of the prodrugs to inhibit Notch cleavage by the γ-secretase, was investigated using a reporter assay (Table 3). The DR215/F2 cell line expresses a reporter construct designed to monitor the activity of the Notch signal transduction pathway. The DR215/F2 cell line 39 carries two transgenes: the firefly luciferase reporter gene expressed under the control of the Gal4 promoter and the human Notch1 activator gene fused with the yeast Gal4 transcription factor. This assay confirmed that the prodrugs were able to inhibit γ-secretase and the activation of the Notch pathway. The DR215/F2 cell reporter assay was also used to determine the IC50 for blockade of the Notch pathway by all the compounds designed and prepared.
The values were determined using the 215/F2 reporter cell line for Notch activation by the γ-secretase. All values are the mean of at least 3 experiments.
The preparation and characterization of rat brain-derived EC219 endothelial cells have been described in Juillerat-Jeanneret, L. et al. In Vitro Cell. Dev. Biol. 1992, 28A, 537-543. These cells express high levels of APA and γ-GT activities and can be used for determining kinetics in living cells, and were chosen as APA- and γ-GT-positive representative cell models. EC219 cells were grown in DMEM medium containing 1 g/l glucose, 10% heat-inactivated fetal calf serum (FCS, EuroClone, UK) supplemented with 100 U/mL penicillin and 100 μg/mL streptomycin (P/S) on uncoated cell culture plastic ware. The HEK293 and HK2 human kidney cells are available from the ATCC (American Tissue Culture Collection, Manassas, Va., USA). HEK293 cells were grown on uncoated cell culture plastic ware in Iscove modified Dulbecco medium (IMDM, Life Technologies) containing 10% FCS and P/S. HK2 cells were grown on uncoated cell culture plastic ware in DMEM/F-12 GlutaMAX medium (Gibco) containing 5% FCS, P/S, 1% ITS (1.0 mg/ml bovine insulin, 0.55 mg/ml human transferrin and 0.5 μg/ml sodium selenite, Sigma-Aldrich) and 5 ng/ml hydrocortisone. The human HEK293-derived DR215/F2 embryonic kidney cell line, stably transfected with pFR Luc and APP-Notch Gal (plasmid DR215) as described in WO 2006/061136 A2 and Brockhaus, M. Neuroreport 1998 9, 1481-1486, were maintained using IMDM with 10% FCS supplemented with P/S and kept under double-selection with 150 μg/ml G-418 and 50 μg/ml hygromycin B on coated (1:100 Poly-L-lysine) cell culture plastic ware. In this assay, the Notch-Gal4 protein is bound to the cell membrane via its trans-membrane domain. The Notch intracellular domain is released by proteolytic cleavage mediated by the γ-secretase and moves to the cell nucleus where it activates the reporter luciferase gene transcript. Inhibition of γ-secretase thus decreases luciferase activity. Briefly, cultures were grown in 96-well microplates to 80% confluence; the cells were then washed in PBS and exposed to decreasing concentrations of the γ-secretase-inhibitor analogues in complete IMDM culture medium without red phenol at 37° C. for 19 h. Then 75 μl of supernatant from each well was removed and the luciferase activity was determined by adding 25 μl of Steady-Glo luciferase assay reagent (Promega).

[2] = Pharmacokinetic assessment in male Wistar rats (i.v.); type: in vivo, rat; conditions: for concentration at 0.25 h / concentration at 0.5 h: rat, intravenous
Method: (§1) For PK evaluation, the compounds were administered i.p to male C57BL/6 mice in suspension (gelatine/saline 7.5%/0.62% in water) using an administration volume of 4 mL/kg. Blood samples were collected in tubes containing EDTA, plasma was separated by centrifugation and stored at −80° C. Liver and kidney samples (˜100 mg aliquots) were homogenized in three volumes of water using Precellys tissue homogenization tubes (precellys.com). 25 μL of each tissue homogenate was further diluted with 25 μL blank plasma to produce the final tissue homogenate for extraction. All samples were analyzed using protein precipitation followed by LC-MS/MS analysis. Briefly, 50 μL plasma or final tissue homogenate were mixed with 50 μL 0.5M HClO4/acetonitrile 9/1 (containing 200 ng/mL internal standard bosentan). Samples were stirred and 300 μL water was added followed by centrifugation at 5600 rpm (4° C., 10 min). 10 μL supernatant was analyzed by LC/MS analysis. Calibration standards in plasma were prepared the same way. The LC column and conditions used were: Phenomenex, Polar RP, 4 μm, 50×2.1 mm at 0.4 mL/min flow rate with a 3 min gradient from 95% solvent A to 95% solvent B (Solvent A: Water/ACN/HCOOH, 90:10:0.1+10 mM NH4 formate; Solvent B: Water/ACN/HCOOH, 10:90:0.1+10 mM NH4 formate). Mass spectrometric conditions were: Thermo TSQ Vantage with positive heated electrospray ionization in MS/MS mode. Compounds mass transitions monitored were m/z 320.7 to 119.9. PK parameters for all studies were calculated using Phoenix WinNonlin Software.
We next determined the stability, tissue distribution and cleavage rate in plasma, liver and kidney of the designed prodrugs in male Wistar rats. In the in vivo screen, the kinetics and distribution of the prodrugs Ac-γ-Glu-SecrI (13a) and Ac-γ-Glu-O-SecrI (13c) were compared with the active γ-secretase inhibitor SecrI (8). After i.v. administration in male Wistar rats, the disappearance of the prodrugs and the formation of the active amine-SecrI (11a), amine-O-SecrI (11b) and SecrI (8) were compared in plasma, liver and kidney (Table 7A-C). First, we determined the pharmacokinetics (PK) behavior of SecrI (8) following i.v. administration (Table 7A). […] Liver and kidney exposure were much higher, with same exposure in liver and kidney. […] The selectivity towards kidney stayed constant over time. The carbonate analogue Ac-γ-Glu-O-SecrI (13c) prodrug was converted to a lower extent than the Ac-γ-Glu-SecrI (13a) to amine-O-SecrI (11b) but more to the linker free γ-secretase inhibitor 8 (Table 7C).
Plasma and tissue concentrations of administered compound (A-C) and formed amine-SecrI (11a), amine-O-SecrI (11b) or SecrI (8) (B-C) were determined following i.v. administration in rats (no standard deviation given due to sparse sampling; n≤3 rats per time point). Numbers in parentheses represent relative amounts with the exposure of kidney arbitrarily set at each time point to 100%. […] BQL=below quantifiable limit.

[3] = Pharmacokinetic assessment in C57BL/6 healthy wild-type mice (i.p.); type: in vivo, mouse; conditions: C57BL/6 mice, 10 mg/kg i.p.
Method: as §1
We next determined the stability, tissue distribution and cleavage rate in plasma, liver and kidney of the designed prodrugs in non-diseased mice. In the in vivo screen, the kinetics and distribution of γ-secretase inhibitor prodrugs Ac-γ-Glu-SecrI (13a), Ac-α-Glu-SecrI (15a) and H-α-Glu-SecrI (15b) were compared with the active γ-secretase inhibitor amine-SecrI (11a). After i.p administration (10 mg/kg) in C57BL/6 mice, the disappearance of the prodrugs and the formation of the active amine-SecrI (11a) were compared in plasma, liver and kidney (Table 5). First, we determined the pharmacokinetics (PK) behavior of amine-SecrI (11a) following i.p. administration (Table 5A). […] Liver and kidney exposure were much higher, with approximately 4.5-fold higher exposure in liver compared to kidney. […] The selectivity towards kidney appeared to decrease over time, probably due to fast clearance and re-equilibration of the amine-SecrI (11a). However, the high selectivity at earlier time-points assured that the total exposure over time was much higher in the kidney compared to the liver.

Q: Which “IC50 for blockade of the Notch pathway, range in words” value [1] does the source give for `C[C@H]1Oc2ccc(F)cc2N(CCOC(=O)OCCN)C(=O)[C@H]1NC(=O)[C@@](C)(O)C(=O)NCC(F)(F)C(F)(F)F` [Compound 11b, 2-Aminoethyl 2-((2R,3S)-7-fluoro-3-((S)-2-hydroxy-2-methyl-3-oxo-3-(2,2,3,3,3-pentafluoropropylamino)propanamido)-2-methyl-4-oxo-3,4-dihydrobenzo[b][1,4]oxazepin-5(2H)-yl)ethyl carbonate hydrochloride] here?
A: low nanomolar range

Q: What about the IC50 [1] of the same compound?
A: 0.0005 µM

Q: And the “Plasma concentration of formed 11b” value ([2]; 13c 1.5 mg/kg i.v., 0.25 h)?
A: BQL

Q: What about the “Plasma concentration of formed 11b” value ([2]; 13c 1.5 mg/kg i.v., 0.5 h) of the same compound?
A: BQL

Q: What about the “Plasma concentration of formed 11b” value ([2]; 13c 1.5 mg/kg i.v., 4 h) of the same compound?
A: BQL

Q: What about the “Formed 11b in kidney, relative amount (arbitrarily set to 100%)” value ([2]; 13c 1.5 mg/kg i.v., 7 h) of the same compound?
A: (100) %

Q: What about the “Plasma concentration of formed 11b” value ([2]; 13c 1.5 mg/kg i.v., 7 h) of the same compound?
A: BQL

Q: What about the “kidney selectivity, in words” value ([2]; formed after 13c i.v.) of the same compound?
A: very good kidney selectivity

Q: With `CC(=O)N[C@@H](CCC(=O)NCCOC(=O)OCCN1C(=O)[C@@H](NC(=O)[C@@](C)(O)C(=O)NCC(F)(F)C(F)(F)F)[C@@H](C)Oc2ccc(F)cc21)C(=O)O` [Compound 13c, (S)-2-acetamido-5-(2-((2-((2R,3S)-7-fluoro-3-((S)-2-hydroxy-2-methyl-3-oxo-3-(2,2,3,3,3-pentafluoropropylamino)propanamido)-2-methyl-4-oxo-3,4-dihydrobenzo[b][1,4]oxazepin-5(2H)-yl)ethoxy)carbonyloxy)ethylamino)-5-oxopentanoic acid] as the compound, how does the IC50 [1] read?
A: 0.17 µM

Q: And the “Kidney concentration of 13c” value ([2]; 13c 1.5 mg/kg i.v., 4 h)?
A: BQL

Q: What about the “Liver concentration of 13c” value ([2]; 13c 1.5 mg/kg i.v., 4 h) of the same compound?
A: BQL

Q: What about the “Plasma concentration of 13c” value ([2]; 13c 1.5 mg/kg i.v., 4 h) of the same compound?
A: BQL

Q: What about the “Kidney concentration of 13c” value ([2]; 13c 1.5 mg/kg i.v., 7 h) of the same compound?
A: BQL

Q: And the “Liver concentration of 13c” value ([2]; 13c 1.5 mg/kg i.v., 7 h)?
A: BQL

Q: What about the “Plasma concentration of 13c” value ([2]; 13c 1.5 mg/kg i.v., 7 h) of the same compound?
A: BQL

Q: What about the “conversion to amine-O-SecrI (11b), in words” value ([2]; 13c i.v., compared with 13a) of the same compound?
A: lower extent

Q: And the “conversion to the linker-free γ-secretase inhibitor 8, in words” value ([2]; i.v.)?
A: significantly converted

Q: And the concentration at 0.25 h ([2]; kidney, 13c 1.5 mg/kg i.v., 0.25 h, read-out: Kidney concentration of 13c)?
A: 20.5 ng/g

Q: And the concentration at 0.5 h ([2]; kidney, 13c 1.5 mg/kg i.v., 0.5 h, read-out: Kidney concentration of 13c)?
A: 3.8 ng/g

Q: And the concentration at 0.25 h ([2]; liver, 13c 1.5 mg/kg i.v., 0.25 h, read-out: Liver concentration of 13c)?
A: 196 ng/g

Q: And the concentration at 0.5 h ([2]; liver, 13c 1.5 mg/kg i.v., 0.5 h, read-out: Liver concentration of 13c)?
A: 32.3 ng/g

Q: What about the concentration at 0.25 h ([2]; plasma, 13c 1.5 mg/kg i.v., 0.25 h, read-out: Plasma concentration of 13c) of the same compound?
A: 53 ng/mL

Q: What about the concentration at 0.5 h ([2]; plasma, 13c 1.5 mg/kg i.v., 0.5 h, read-out: Plasma concentration of 13c) of the same compound?
A: 4.6 ng/mL

Q: With `C[C@H]1Oc2ccc(F)cc2N(CCOC(=O)NCCNC(=O)[C@@H](N)CCC(=O)O)C(=O)[C@H]1NC(=O)[C@@](C)(O)C(=O)NCC(F)(F)C(F)(F)F` [Compound 15b, (S)-4-amino-5-(2-((2-((2R,3S)-7-fluoro-3-((S)-2-hydroxy-2-methyl-3-oxo-3-(2,2,3,3,3-pentafluoropropylamino)propanamido)-2-methyl-4-oxo-3,4-dihydrobenzo[b][1,4]oxazepin-5(2H)-yl)ethoxy)carbonylamino)ethylamino)-5-oxopentanoic acid hydrochloride] as the compound, how does the “IC50 for blockade of the Notch pathway, range in words” value [1] read?
A: high nM range

Q: What about the IC50 [1] of the same compound?
A: 0.258 µM

Q: What about the “conversion to amine-SecrI (11a), in words” value [3] of the same compound?
A: overall highest conversion

Q: And the “Kidney concentration of administered compound” value ([3]; 4 h)?
A: BQL

Q: What about the “Plasma concentration of administered compound” value ([3]; 4 h) of the same compound?
A: BQL

Q: And the “Kidney concentration of administered compound” value ([3]; 7 h)?
A: BQL

Q: What about the “Plasma concentration of administered compound” value ([3]; 7 h) of the same compound?
A: BQL

Q: And the concentration at 0.5 h ([3]; male, mouse, kidney, ip, read-out: Kidney concentration of administered compound)?
A: 8.51 ng/g

Q: What about the concentration at 0.5 h ([3]; male, mouse, liver, ip, read-out: Liver concentration of administered compound) of the same compound?
A: 277 ng/g

Q: And the concentration at 4 h ([3]; male, mouse, liver, ip, 4 h, read-out: Liver concentration of administered compound)?
A: 60.7 ng/g

Q: What about the concentration at 7 h ([3]; male, mouse, liver, ip, 7 h, read-out: Liver concentration of administered compound) of the same compound?
A: 5.78 ng/g

Q: What about the concentration at 0.5 h ([3]; male, mouse, plasma, ip, read-out: Plasma concentration of administered compound) of the same compound?
A: 3.67 ng/mL

— US10632127B2, “Targeted notch pathway inhibitors” (Hoffmann-La Roche Inc., priority 2015, dated 2020)
